In PubChem BioAssay AID493040 (Abbott Labs, 2011):
Calls of active or inactive are those of the source. No rule for the calls is given here.

Tests used:
Assay in all cases: PubChem AID 493040
[1] = biological target: Mitogen-activated protein kinase 14 (Homo sapiens) (UniProt Q16539); settings: kinase panel binding, pKi; MAPK14
[2] = biological target: Rho-associated protein kinase 2 (Homo sapiens) (UniProt O75116); settings: kinase panel binding, pKi; ROCK2
[3] = biological target: Epidermal growth factor receptor (Homo sapiens) (UniProt P00533); settings: kinase panel binding, pKi; EGFR
[4] = biological target: Serine/threonine-protein kinase Sgk2 (Homo sapiens) (UniProt Q9HBY8); settings: kinase panel binding, pKi; SGK
[5] = biological target: Serine/threonine-protein kinase PLK3 (Homo sapiens) (UniProt Q9H4B4); settings: kinase panel binding, pKi
[6] = biological target: Cyclin-dependent kinase 2 (Homo sapiens) (UniProt P24941); settings: kinase panel binding, pKi; CDK2
[7] = biological target: Cell division cycle 7-related protein kinase (Homo sapiens) (UniProt O00311); settings: kinase panel binding, pKi; CDC7
[8] = biological target: Cyclin-dependent kinase 5 (Homo sapiens) (UniProt Q00535); settings: kinase panel binding, pKi; CDK5
Chain of Cyclin-dependent kinase 5 (Homo sapiens) (Q00535 whole entry, looked up): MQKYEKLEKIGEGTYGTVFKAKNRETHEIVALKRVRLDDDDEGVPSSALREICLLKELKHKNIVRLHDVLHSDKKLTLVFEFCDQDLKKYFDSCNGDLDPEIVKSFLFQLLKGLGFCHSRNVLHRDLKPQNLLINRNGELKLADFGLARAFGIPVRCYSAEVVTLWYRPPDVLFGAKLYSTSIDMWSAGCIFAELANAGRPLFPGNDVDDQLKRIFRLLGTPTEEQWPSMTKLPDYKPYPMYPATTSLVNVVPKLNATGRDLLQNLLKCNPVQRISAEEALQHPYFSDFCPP

Chain of Rho-associated protein kinase 2 (Homo sapiens) (O75116 whole entry, looked up): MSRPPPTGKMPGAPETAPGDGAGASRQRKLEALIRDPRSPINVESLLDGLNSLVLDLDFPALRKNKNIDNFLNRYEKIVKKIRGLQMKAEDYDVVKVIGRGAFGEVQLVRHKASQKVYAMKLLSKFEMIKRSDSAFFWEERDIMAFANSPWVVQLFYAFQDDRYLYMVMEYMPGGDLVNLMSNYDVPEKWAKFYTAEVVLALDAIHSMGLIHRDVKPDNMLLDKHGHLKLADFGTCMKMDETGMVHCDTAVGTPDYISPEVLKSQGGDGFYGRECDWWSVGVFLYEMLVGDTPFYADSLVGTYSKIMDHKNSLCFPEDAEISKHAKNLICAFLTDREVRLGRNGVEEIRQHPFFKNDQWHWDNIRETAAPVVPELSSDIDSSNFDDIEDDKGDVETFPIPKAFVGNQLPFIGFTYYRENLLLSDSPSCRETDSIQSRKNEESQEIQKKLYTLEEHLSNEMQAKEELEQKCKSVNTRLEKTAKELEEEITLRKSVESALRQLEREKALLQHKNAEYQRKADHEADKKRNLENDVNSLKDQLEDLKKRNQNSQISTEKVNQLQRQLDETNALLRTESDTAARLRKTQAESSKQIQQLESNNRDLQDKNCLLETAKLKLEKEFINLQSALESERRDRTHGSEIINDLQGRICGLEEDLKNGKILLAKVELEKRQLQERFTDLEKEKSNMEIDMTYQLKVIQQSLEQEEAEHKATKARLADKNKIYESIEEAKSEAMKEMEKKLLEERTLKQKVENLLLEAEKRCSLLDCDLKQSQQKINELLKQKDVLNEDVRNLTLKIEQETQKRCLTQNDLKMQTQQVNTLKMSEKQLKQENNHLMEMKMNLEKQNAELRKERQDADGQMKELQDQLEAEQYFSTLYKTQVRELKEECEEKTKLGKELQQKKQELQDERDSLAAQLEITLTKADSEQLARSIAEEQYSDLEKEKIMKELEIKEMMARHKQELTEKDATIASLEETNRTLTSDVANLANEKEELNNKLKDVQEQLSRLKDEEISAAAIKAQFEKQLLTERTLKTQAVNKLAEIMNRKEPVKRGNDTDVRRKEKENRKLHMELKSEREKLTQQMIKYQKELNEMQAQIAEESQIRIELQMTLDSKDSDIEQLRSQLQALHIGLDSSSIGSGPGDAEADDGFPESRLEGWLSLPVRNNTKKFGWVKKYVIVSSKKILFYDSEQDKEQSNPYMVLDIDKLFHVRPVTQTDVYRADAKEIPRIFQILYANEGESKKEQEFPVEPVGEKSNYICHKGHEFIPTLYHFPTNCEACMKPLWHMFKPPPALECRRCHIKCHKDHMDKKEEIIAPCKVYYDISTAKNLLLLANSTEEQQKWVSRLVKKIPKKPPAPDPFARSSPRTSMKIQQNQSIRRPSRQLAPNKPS
Chain of Mitogen-activated protein kinase 14 (Homo sapiens) (Q16539 whole entry, looked up): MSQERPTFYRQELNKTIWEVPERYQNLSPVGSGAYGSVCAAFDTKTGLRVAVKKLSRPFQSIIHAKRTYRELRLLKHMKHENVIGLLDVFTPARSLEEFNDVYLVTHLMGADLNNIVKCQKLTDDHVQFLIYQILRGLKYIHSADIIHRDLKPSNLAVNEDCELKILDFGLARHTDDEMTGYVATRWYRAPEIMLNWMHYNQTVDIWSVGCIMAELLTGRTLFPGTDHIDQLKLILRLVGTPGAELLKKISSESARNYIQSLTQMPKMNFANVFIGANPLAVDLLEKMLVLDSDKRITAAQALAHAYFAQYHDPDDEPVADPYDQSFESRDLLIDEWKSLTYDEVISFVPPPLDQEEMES
Chain of Serine/threonine-protein kinase Sgk2 (Homo sapiens) (Q9HBY8 whole entry, looked up): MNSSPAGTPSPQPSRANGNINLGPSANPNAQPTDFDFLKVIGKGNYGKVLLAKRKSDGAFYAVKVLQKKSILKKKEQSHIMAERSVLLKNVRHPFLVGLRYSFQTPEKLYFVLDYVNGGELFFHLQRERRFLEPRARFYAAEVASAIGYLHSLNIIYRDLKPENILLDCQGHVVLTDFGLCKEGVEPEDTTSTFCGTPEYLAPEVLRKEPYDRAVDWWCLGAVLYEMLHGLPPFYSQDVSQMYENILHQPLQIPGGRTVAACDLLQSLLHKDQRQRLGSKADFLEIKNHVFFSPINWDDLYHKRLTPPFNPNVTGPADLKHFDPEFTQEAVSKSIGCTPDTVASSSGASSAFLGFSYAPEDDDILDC
Chain of Epidermal growth factor receptor (Homo sapiens) (P00533 whole entry, looked up): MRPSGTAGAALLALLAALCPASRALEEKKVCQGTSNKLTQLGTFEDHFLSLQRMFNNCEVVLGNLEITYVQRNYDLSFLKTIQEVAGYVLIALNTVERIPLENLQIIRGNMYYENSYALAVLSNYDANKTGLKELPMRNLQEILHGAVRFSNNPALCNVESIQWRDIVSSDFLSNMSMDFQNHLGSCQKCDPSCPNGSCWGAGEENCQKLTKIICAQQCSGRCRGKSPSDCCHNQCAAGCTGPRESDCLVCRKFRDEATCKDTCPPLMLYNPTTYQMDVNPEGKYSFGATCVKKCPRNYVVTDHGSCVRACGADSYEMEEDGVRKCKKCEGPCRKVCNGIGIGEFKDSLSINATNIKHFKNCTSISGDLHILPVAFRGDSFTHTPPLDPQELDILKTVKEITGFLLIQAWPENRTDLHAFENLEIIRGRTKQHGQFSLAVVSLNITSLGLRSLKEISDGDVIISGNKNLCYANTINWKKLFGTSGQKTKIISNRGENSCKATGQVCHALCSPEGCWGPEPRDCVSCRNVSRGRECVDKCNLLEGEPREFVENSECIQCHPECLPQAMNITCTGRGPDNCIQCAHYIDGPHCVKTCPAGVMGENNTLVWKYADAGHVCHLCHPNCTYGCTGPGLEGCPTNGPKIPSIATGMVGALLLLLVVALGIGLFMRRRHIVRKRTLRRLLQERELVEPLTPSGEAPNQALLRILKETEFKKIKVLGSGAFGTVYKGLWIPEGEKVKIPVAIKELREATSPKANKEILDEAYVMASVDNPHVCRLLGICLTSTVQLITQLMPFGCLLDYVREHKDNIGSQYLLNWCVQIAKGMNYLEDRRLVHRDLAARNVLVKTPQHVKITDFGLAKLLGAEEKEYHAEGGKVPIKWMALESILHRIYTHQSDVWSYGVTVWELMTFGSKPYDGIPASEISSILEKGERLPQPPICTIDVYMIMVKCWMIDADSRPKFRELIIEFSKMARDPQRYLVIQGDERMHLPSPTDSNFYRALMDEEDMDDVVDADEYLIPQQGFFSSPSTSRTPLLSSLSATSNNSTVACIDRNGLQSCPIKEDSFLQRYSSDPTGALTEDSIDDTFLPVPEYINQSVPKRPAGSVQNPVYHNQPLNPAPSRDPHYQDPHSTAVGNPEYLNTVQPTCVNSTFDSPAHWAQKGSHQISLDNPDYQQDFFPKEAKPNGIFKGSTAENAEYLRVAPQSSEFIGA
Chain of Serine/threonine-protein kinase PLK3 (Homo sapiens) (Q9H4B4 whole entry, looked up): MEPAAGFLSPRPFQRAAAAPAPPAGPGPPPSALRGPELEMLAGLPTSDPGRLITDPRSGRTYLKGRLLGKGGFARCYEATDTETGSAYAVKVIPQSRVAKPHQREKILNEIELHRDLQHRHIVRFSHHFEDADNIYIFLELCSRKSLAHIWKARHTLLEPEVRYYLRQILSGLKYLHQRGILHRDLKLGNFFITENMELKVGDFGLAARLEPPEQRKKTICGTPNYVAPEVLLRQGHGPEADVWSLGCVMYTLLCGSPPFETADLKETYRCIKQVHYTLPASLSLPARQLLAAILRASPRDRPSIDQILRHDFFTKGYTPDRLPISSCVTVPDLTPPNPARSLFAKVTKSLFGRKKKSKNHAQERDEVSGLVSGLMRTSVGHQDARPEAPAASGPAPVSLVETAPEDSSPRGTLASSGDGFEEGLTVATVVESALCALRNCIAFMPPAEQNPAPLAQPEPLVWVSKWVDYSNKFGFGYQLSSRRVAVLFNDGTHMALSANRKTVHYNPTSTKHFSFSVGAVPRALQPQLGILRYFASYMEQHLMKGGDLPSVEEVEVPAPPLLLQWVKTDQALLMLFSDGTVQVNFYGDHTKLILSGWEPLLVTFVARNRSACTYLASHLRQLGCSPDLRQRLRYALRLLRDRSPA
Chain of Cell division cycle 7-related protein kinase (Homo sapiens) (O00311 whole entry, looked up): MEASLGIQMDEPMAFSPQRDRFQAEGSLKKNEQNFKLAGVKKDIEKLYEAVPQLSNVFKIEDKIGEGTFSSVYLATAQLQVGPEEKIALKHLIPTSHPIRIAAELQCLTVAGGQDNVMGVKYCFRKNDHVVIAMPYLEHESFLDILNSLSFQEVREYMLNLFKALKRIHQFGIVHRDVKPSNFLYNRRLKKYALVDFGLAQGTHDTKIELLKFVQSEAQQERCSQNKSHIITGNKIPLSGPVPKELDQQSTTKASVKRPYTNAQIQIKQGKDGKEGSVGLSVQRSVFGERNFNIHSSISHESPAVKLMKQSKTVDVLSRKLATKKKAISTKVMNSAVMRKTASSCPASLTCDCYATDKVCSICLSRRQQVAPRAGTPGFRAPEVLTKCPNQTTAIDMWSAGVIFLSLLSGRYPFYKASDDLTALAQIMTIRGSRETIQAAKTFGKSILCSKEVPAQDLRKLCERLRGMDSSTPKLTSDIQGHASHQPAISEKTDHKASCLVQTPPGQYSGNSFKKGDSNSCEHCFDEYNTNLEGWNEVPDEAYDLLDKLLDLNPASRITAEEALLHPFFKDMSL

## CC(C)(C)c1cc(NC(=O)c2cc3ccccc3s2)n(-c2ccc(OCC(=O)O)cc2)n1
[1]
  Ki: 2510 nM

## COc1cc2ncn(-c3cc(OCc4ccccc4C(F)(F)F)c(C(N)=O)s3)c2cc1OC
[2]
  Ki: > 7940 nM (inactive)
[3]
  Ki: 251 nM
[4]
  Ki: > 10000 nM (inactive)
[5]
  Ki: 7.94 nM

## Cc1cc(=O)[nH]nc1-c1ccc(NC(=O)Nc2cc(C(F)(F)F)ccc2F)c(Cl)c1
[1]
  Ki: 100 nM

## NC(=O)c1ccc2nc(-c3ccc([N+](=O)[O-])o3)cn2c1
[1]
  Ki: 3160 nM

## CC(C)CC(NC(=O)c1cccc(-n2nc(C(C)(C)C)cc2NC(=O)Nc2cccc3ccccc23)c1)C(N)=O (centres undefined)
[1]
  Ki: 794 nM

## Cc1cc(=O)[nH]c2n[nH]c(-c3cccc(C(F)(F)F)c3)c12
[1]
  Ki: 398 nM

## CCN(CCN(C)C)C(=O)c1cccc(-n2nc(C(C)(C)C)cc2NC(=O)Nc2cccc3ccccc23)c1
[1]
  Ki: 794 nM

## CN(C)c1ccc(-c2c(-c3ccc4[nH]nc(N)c4c3)nnn2Cc2ccccc2)cc1
[6]
  Ki: 126 nM
[7]
  Ki: 0.398 nM
[2]
  Ki: 20 nM

## CC(C)(C)c1cc(NC(=O)C(=O)c2cccc3ccccc23)n(-c2ccc(OCCC(N)=O)cc2)n1
[1]
  Ki: 631 nM

## CC(C)(C)c1cc(NC(=O)C(=O)c2cccc3ccccc23)n(-c2ccc(OCC(=O)NCCO)cc2)n1
[1]
  Ki: 631 nM

## O=C(O)c1ccccc1Nc1ncnc(Nc2ccc3cn[nH]c3c2)n1
[6]
  Ki: 316 nM
[8]
  Ki: 251 nM
[2]
  Ki: > 5010 nM (inactive)

## c1ccc(-c2ncc3ccccn23)cc1
[1]
  Ki: 50100 nM
